# Data taken from article PMC6497071 (Bioorganic & medicinal chemistry letters, 2018).
# Read-outs that look alike come from different tables or passages of the source.
# Assays:
# MV4-11 leukemia cells = assay: MV4-11 leukemia cell viability; type: cell-based, human
# tubulin = tubulin polymerization cell-based immunoblot assay; conditions: immunoblot of pellet and supernatant
# [1] = system: panel of 60 human tumor cell lines; assay: NCI-60 five dose assay, whole panel summary; type: cell-based
# HCT-116 = HCT-116 (Colon Cancer), five dose; cited from earlier work
# U251 = U251 (CNS Cancer), five dose; cited from earlier work
# OVCAR-4 = OVCAR-4 (Ovarian Cancer), five dose; cited from earlier work
# HT29 = HT29 (Colon Cancer), five dose; cited from earlier work
# LOX IMVI = LOX IMVI (Melanoma), five dose; cited from earlier work
# KM12 = KM12 (Colon Cancer), five dose; cited from earlier work
# HCC-2998 = HCC-2998 (Colon Cancer), five dose; cited from earlier work
# SF-295 = SF-295 (CNS Cancer), five dose; cited from earlier work
# RPMI-8226 = RPMI-8226 (Leukemia), five dose; cited from earlier work
# M14 = M14 (Melanoma), five dose; cited from earlier work
# HS 578T = HS 578T (Breast Cancer), five dose; cited from earlier work
# UACC-62 = UACC-62 (Melanoma), five dose; cited from earlier work
# IGROV1 = IGROV1 (Ovarian Cancer), five dose; cited from earlier work
# SNB-75 = SNB-75 (CNS Cancer), five dose; cited from earlier work
# HCT-15 = HCT-15 (Colon Cancer), five dose; cited from earlier work
# MDA-MB-435 = MDA-MB-435 (Melanoma), five dose; cited from earlier work
# MDA-MB-231/ATCC = MDA-MB-231/ATCC (Breast Cancer), five dose; cited from earlier work
# NCI-H23 = NCI-H23 (Lung Cancer), five dose; cited from earlier work
# SK-OV-3 = SK-OV-3 (Ovarian Cancer), five dose; cited from earlier work
# HOP-92 = HOP-92 (Lung Cancer), five dose; cited from earlier work
# NCI-H522 = NCI-H522 (Lung Cancer), five dose; cited from earlier work
# SW-620 = SW-620 (Colon Cancer), five dose; cited from earlier work
# K-562 = K-562 (Leukemia), five dose; cited from earlier work
# NCI/ADR-RES = NCI/ADR-RES (Ovarian Cancer), five dose; cited from earlier work
# SR = SR (Leukemia), five dose; cited from earlier work
# SK-MEL-2 = SK-MEL-2 (Melanoma), five dose; cited from earlier work
# SF-539 = SF-539 (CNS Cancer), five dose; cited from earlier work
# COLO 205 = COLO 205 (Colon Cancer), five dose; cited from earlier work
# HL-60(TB) = HL-60(TB) (Leukemia), five dose; cited from earlier work
# MCF7 = MCF7 (Breast Cancer), five dose; cited from earlier work
# MOLT-4 = MOLT-4 (Leukemia), five dose; cited from earlier work
# [2] = system: panel of 60 human tumor cell lines; conditions: against 87% of the cancer cell lines; cited from earlier work
# SNB-19 = SNB-19 (CNS Cancer), five dose; cited from earlier work
# ACHN = ACHN (Renal Cancer), five dose; cited from earlier work
# MDA-MB-468 = MDA-MB-468 (Breast Cancer), five dose; cited from earlier work
# UO-31 = UO-31 (Renal Cancer), five dose; cited from earlier work
# CAKI-1 = CAKI-1 (Renal Cancer), five dose; cited from earlier work
# SK-MEL-5 = SK-MEL-5 (Melanoma), five dose; cited from earlier work
# SF-268 = SF-268 (CNS Cancer), five dose; cited from earlier work
# CCRF-CEM = CCRF-CEM (Leukemia), five dose; cited from earlier work
# 786-0 = 786-0 (Renal Cancer), five dose; cited from earlier work
# A498 = A498 (Renal Cancer), five dose; cited from earlier work
# A549/ATCC = A549/ATCC (Lung Cancer), five dose; cited from earlier work
# SK-MEL-28 = SK-MEL-28 (Melanoma), five dose; cited from earlier work
# OVCAR-3 = OVCAR-3 (Ovarian Cancer), five dose; cited from earlier work
# HOP-62 = HOP-62 (Lung Cancer), five dose; cited from earlier work
compound,measurement,setting,value
"COc1ccc(/C=C(/c2cc(OC)c(OC)c(OC)c2)c2nnn[nH]2)cc1 [Compound 8g, (Z)-5-(2-(4-Methoxyphenyl)-1-(3,4,5-trimethoxyphenyl)vinyl)-1H-tetrazole]",LD50 (24h),MV4-11 leukemia cells,4.60 µM
same,LD50 (48h),MV4-11 leukemia cells,4.29 µM
same,fold less effective when compared with 8h,MV4-11 leukemia cells; LD50 ratio,~170 fold
same,inhibition of tubulin polymerization,tubulin; 1.0 μM and 2.0 μM,inhibited tubulin polymerization
same,inhibition of tubulin polymerization,tubulin; 2.0 μM,Significant inhibition
"COc1ccc(/C=C(/c2ccc([N+](=O)[O-])cc2)c2nnn[nH]2)c2ccccc12 [Compound 10a, (Z)-5-(2-(4-Methoxynaphthalen-1-yl)-1-(4-nitrophenyl)vinyl)-1H-tetrazole]",LD50 (24h),MV4-11 leukemia cells,1.46 µM
same,LD50 (48h),MV4-11 leukemia cells,1.39 µM
same,inhibition of tubulin polymerization,tubulin; 1.0 μM and 2.0 μM,inhibited tubulin polymerization
same,inhibition of tubulin polymerization,tubulin; 2.0 μM,Significant inhibition
"COc1ccc(/C(=C/c2ccc3ccccc3c2)c2nnn[nH]2)cc1OC [Compound 10b, (Z)-5-(1-(3,4-Dimethoxyphenyl)-2-(naphthalen-2-yl)vinyl)-1H-tetrazole]",GI50,[1]; against more than 30% of the human cancer cell lines,< 2500 nM
same,GI50,[1]; against only 15% of the cell lines in the panel,< 2000 nM
same,LD50 (24h),MV4-11 leukemia cells,1.08 µM
same,LD50 (48h),MV4-11 leukemia cells,1.01 µM
same,inhibition of tubulin polymerization,tubulin; 1.0 μM and 2.0 μM,inhibited tubulin polymerization
same,inhibition of tubulin polymerization,tubulin; 2.0 μM,significantly less active
COc1ccc(/C=C(\C#N)c2cc(OC)c(OC)c(OC)c2)cc1O [Compound 5],GI50,HCT-116,< 10 nM
same,GI50,U251,10 nM
same,GI50,OVCAR-4,< 10 nM
same,GI50,HT29,3.18 µM
same,GI50,LOX IMVI,< 10 nM
same,GI50,KM12,< 10 nM
same,GI50,HCC-2998,20 nM
same,GI50,SF-295,50 nM
same,GI50,RPMI-8226,< 10 nM
same,GI50,M14,< 10 nM
same,GI50,HS 578T,< 10 nM
same,GI50,UACC-62,< 10 nM
same,GI50,IGROV1,< 10 nM
same,GI50,SNB-75,< 10 nM
same,GI50,HCT-15,< 10 nM
same,GI50,MDA-MB-435,< 10 nM
same,GI50,MDA-MB-231/ATCC,< 10 nM
same,GI50,NCI-H23,< 10 nM
same,GI50,SK-OV-3,10 nM
same,GI50,HOP-92,< 10 nM
same,GI50,NCI-H522,< 10 nM
same,GI50,SW-620,< 10 nM
same,GI50,K-562,< 10 nM
same,GI50,NCI/ADR-RES,< 10 nM
same,GI50,SR,< 10 nM
same,GI50,SK-MEL-2,< 10 nM
same,GI50,SF-539,< 10 nM
same,GI50,COLO 205,2990 nM
same,GI50,HL-60(TB),< 10 nM
same,GI50,MCF7,< 10 nM
same,GI50,MOLT-4,< 10 nM
same,GI50,[2],< 10 nM
same,GI50,SNB-19,< 10 nM
same,GI50,ACHN,< 10 nM
same,GI50,MDA-MB-468,< 10 nM
same,GI50,UO-31,< 10 nM
same,GI50,CAKI-1,30 nM
same,GI50,SK-MEL-5,< 10 nM
same,GI50,SF-268,< 10 nM
same,GI50,CCRF-CEM,< 10 nM
same,GI50,786-0,< 10 nM
same,GI50,A498,< 10 nM
same,GI50,A549/ATCC,< 10 nM
same,GI50,SK-MEL-28,1010 nM
same,GI50,OVCAR-3,< 10 nM
same,LD50 (48h),MV4-11 leukemia cells,0.04 µM
same,GI50,HOP-62,< 10 nM
"COc1ccccc1/C=C(/c1cc(Br)cc(Br)c1)c1nnn[nH]1 [Compound 8c, (Z)-5-(1-(3,5-Dibromophenyl)-2-(2-methoxyphenyl)vinyl)-1H-tetrazole]",LD50 (24h),MV4-11 leukemia cells,28.8 µM
same,LD50 (48h),MV4-11 leukemia cells,28.6 µM
"COc1ccc(/C=C(/c2cc(OC)c(OC)c(OC)c2)c2nnn[nH]2)cc1O [Compound 8h, (Z)-5-(2-(1H-Tetrazol-5-yl)-2-(3,4,5-trimethoxyphenyl)vinyl)-2-methoxyphenol]",GI50,[1]; 60 cell,< 10 nM
same,LD50 (24h),MV4-11 leukemia cells,0.03 µM
same,LD50 (48h),MV4-11 leukemia cells,0.02 µM
same,LD50,MV4-11 leukemia cells; time not stated in text (equals 24h value of Table 4),30 nM
same,LD50,MV4-11 leukemia cells; time not stated in text (equals 48h value of Table 4),20 nM
same,inhibition of tubulin polymerization,tubulin; 1.0 μM and 2.0 μM,inhibited tubulin polymerization
same,inhibition of tubulin polymerization,tubulin; 2.0 μM,Significant inhibition
